In patent US7223397B1, “Potentiation of anti-CD38-Immunotoxin cytotoxicity” (priority 1999, dated 2007):
Like-named read-outs stand apart in the source and are kept apart here.

Experiments:
CD38 = CD38 expression in tumor cells by flow cytometry after RA treatment; format: cell-based; details: 5 nM RA
Procedure: Table I lists the potential targets for anti-CD38 bound toxin treatment A number of different lymphoid tumor cell lines were treated with 5 nM all-trans-retinoic acid (RA). Afterwards, the expression of CD38 in untreated versus treated cell was measured by flow cytometry. […] The increase in CD38 expression ranges from 2.5 to 20 fold. Thus, retinoic acid can be used in all of these tumor types to increase the vulnerability of the tumor cells to immunotoxin treatment.

[1] = test system: HL-60 cells with a mutated RARα gene; test: MTS cell viability assay, retinoic acid-resistant HL60R cells; format: cell-based
Procedure: These cells are resistant to retinoic acid-induced expression of the CD38 antigen due to a point mutation in the retinoic acid receptor alpha (RARα) gene. The cell line was cultured with increasing concentrations of immunotoxin (in ng/ml) under different conditions.
HL-60 cells with a mutated RARα gene that renders the cells resistant to the effects of retinoic acid were treated with immunotoxin in either the presence or absence of 5 nM retinoic acid.

[2] = test system: myeloid and lymphoid leukemia cells; details: retinoic acid 10^−13 M; cited from earlier work
HL-60 cells = test: MTS cell viability assay, HL-60 cells; format: cell-based; details: 3 days, presence or absence of 5 nM retinoic acid
Procedure: HL-60 cells were incubated with either immunotoxin alone or in the presence of 5 nM retinoic acid (RA). Increasing concentrations of unconjugated IB4 monoclonal antibody were added to the cells incubated with immunotoxin and retinoic acid. After three days, the cells were assayed for viability with the MTS assay. Briefly, 6.5 mg/ml MTS solution [(3-(4,5-dimethylthiazol-2-yl)-5-(3-carboxymethoxyphenyl)-2-(4-sulfophenyl)-2H-tetrazolium] and 0.5 mM PMS (phenazine methosulfate) solution were mixed at a ratio of 20:1. 20 μl of the combined MTS/PMS solution was placed in each well of a 96 well plate containing samples of the cells to be tested. The plate was incubated for 1–4 hours at 37° C. in a 5% CO2 atmosphere, after which time, the amount of formazan produced by live cells from cellular reduction of MTS was measured by reading the absorbance at 490 nm. The results are shown in FIG. 2.
HL-60 cells were preincubated overnight in either the presence or absence of 5 nM all-trans-retinoic acid. The cells were washed twice and incubated in increasing concentrations of immunotoxin in either the presence or absence of IB4 unconjugated anti-CD38 MoAb. After three days, the cell were assayed for viability.
HL-60 cells were incubated for three days with increasing concentrations of either immunotoxin or gelonin in either the presence or absence of 5 nM retinoic acid. […]

Molecule | CD38 after RA treatment (CD38; AML cells) | CD38 after RA treatment (CD38; APL cells) | CD38 after RA treatment (CD38; Lymphomas) | CD38 after RA treatment (CD38; Myelomas) | cell death (MTS) [1] | induction of CD38 cell surface antigen expression [2] [fold] | cell death (MTS) ([1]; HL60R (mutated RARα), 3 days) | toxic effect (MTS cell viability) (HL-60 cells)
CC1=C(/C=C/C(C)=C/C=C/C(C)=C/C(=O)O)C(C)(C)CCC1 [RA, all-trans-retinoic acid] | 180 ± 20 | 120 ± 30 | 210 ± 10 | 180 ± 25 | no appreciable cell death | 4 |  | 
gelonin |  |  |  |  |  |  | no appreciable cell death | no toxic effect
